Test results as given in patent publication US20250144067A1, “PERSONALIZED STARVATION THERAPY FOR CANCER” (Faeth Therapeutics, Inc., priority 2021, published 2025).
Where a name gives a salt, the structure may show the parent alone. Read-outs that look alike come from different tables or passages of the source.

Experiments:
[1] = test system: NCI-H292 lung cancer cells; assay: FDA drug screening, complete media vs cholesterol-free media with simvastatin (TABLE 2); format: cell-based, human
[2] = test system: NCI-H292 lung cancer cells; assay: FDA drug screening, complete media vs cholesterol-free media without statin (TABLE 1); format: cell-based, human
[3] = NCI-H292 cells, FDA drug library screen, cholesterol-free media with simvastatin 0.04 μM
[4] = NCI-H292 cells, FDA drug library screen, complete media
[5] = complete media vs cholesterol-free media + simvastatin (0.04 μM), >0 enhanced anti-cancer activity, about 0 neutral, <0 antagonist
[6] = Complete minus Cholesterol-free, >0 enhanced anti-cancer activity, about 0 neutral, <0 antagonist
[7] = NCI-H292 cells, cholesterol-free media without statin
[8] = NCI-H292 cells, drug in cholesterol-free media with simvastatin 0.04 μM
[9] = NCI-H292 cells, drug in complete media
[10] = complete media minus cholesterol-free media + simvastatin, >0 enhanced anti-cancer activity, about 0 neutral, <0 antagonist
[11] = complete vs cholesterol-free media, greater than 0 enhanced anti-cancer activity, about 0 neutral, below 0 antagonists
[12] = Complete minus Cholesterol-free, […]
[13] = NCI-H292 cells, cholesterol-free media with simvastatin 0.04 μM, FDA drug library screen (TABLE 2)
[14] = NCI-H292 cells, complete media, FDA drug library screen (TABLE 2)
[15] = complete media minus cholesterol-free media + simvastatin (0.04 μM), >0 enhanced anti-cancer activity, about 0 neutral, <0 antagonist
[16] = NCI-H292 cells, cholesterol-free media without statin, FDA drug library screen
[17] = NCI-H292 cells, complete media, FDA drug library screen
[18] = complete vs cholesterol-free media, >0 enhanced anti-cancer activity, about 0 neutral, <0 antagonist
[19] = NCI-H292 cells, FDA library drug in cholesterol-free media with simvastatin 0.04 μM
[20] = NCI-H292 cells, FDA library drug in complete media
[21] = Complete minus Cholesterol-free, greater than 0 enhanced anti-cancer activity, about 0 neutral, below 0 antagonist
[22] = NCI-H292 cells, FDA drug library screen, cholesterol-free media without statin
[23] = NCI-H292 cells, cholesterol-free media with simvastatin 0.04 μM, cell growth value in FDA drug screen
[24] = NCI-H292 cells, complete media, cell growth value in FDA drug screen
[25] = Complete minus Cholesterol-free, greater than 0 enhanced anti-cancer activity, about 0 neutral, below 0 antagonists
[26] = NCI-H292 cells in cholesterol-free media without statin
[27] = NCI-H292 cells in complete media

Compound: CC(C)C(=O)OCC(=O)[C@@]12O[C@H](C3CCCCC3)O[C@@H]1C[C@H]1[C@@H]3CCC4=CC(=O)C=C[C@]4(C)[C@H]3[C@@H](O)C[C@@]12C [Ciclesonide]
- Cholesterol-free media + simvastatin (0.04 μM) [1, 3]: 0.6652
- Complete Media [1, 4]: 0.5742
- Difference [1, 5]: −0.09
- Difference [2, 6]: −0.28
- Cholesterol-free [2, 7]: 0.7014
- Complete ([2]; NCI-H292 cells, complete media): 0.4234

Compound: C[C@H]1[C@H](NC(=O)/C(=N\OC(C)(C)C(=O)O)c2csc(N)n2)C(=O)N1S(=O)(=O)O [Aztreonam]
- Cholesterol-free media + simvastatin (0.04 μM) [1, 8]: 1.706
- Complete Media [1, 9]: 1.446
- Difference [1, 5]: −0.26
- Difference [2, 6]: −0.20
- Cholesterol-free [2, 7]: 1.093
- Complete ([2]; NCI-H292 cells, complete media): 0.892

Compound: C[C@H]1Oc2cc(cnc2N)-c2c(nn(C)c2C#N)CN(C)C(=O)c2ccc(F)cc21 [Lorlatinib]
- Cholesterol-free media + simvastatin (0.04 μM) [1, 3]: 0.9476
- Difference [1, 10]: 0.20
- Cholesterol-free [2, 7]: 1.143
- Complete ([2]; NCI-H292 cells, complete media): 0.8052
- Difference [2, 11]: −0.34

Compound: Fesoterodine (fumarate)
- Cholesterol-free media + simvastatin (0.04 μM) [1, 3]: 0.9771
- Complete Media [1, 4]: 1.278
- Difference ([1]; complete media minus cholesterol-free media + simvastatin, […]): 0.30
- Difference [2, 12]: −0.24
- Cholesterol-free [2, 7]: 1.247
- Complete ([2]; NCI-H292 cells, complete media): 1.003

Compound: Chloroquine (phosphate)
- Cholesterol-free media + simvastatin (0.04 μM) [1]: 1.286
- Complete Media [1]: 0.98
- Difference [1]: −0.31
- Cholesterol-free [2]: 1.557
- Complete [2]: 0.9171
- Difference [2]: −0.64

Compound: OCC(O)CO [Glycerol]
- Cholesterol-free media + simvastatin (0.04 μM) [1, 13]: 1.066
- Complete Media [1, 14]: 1.039
- Difference [1, 15]: −0.03
- Cholesterol-free [2, 16]: 0.984
- Complete [2, 17]: 1.096
- Difference [2, 18]: 0.11

Compound: C/C(=C\C(=O)OCCCCCCCCC(=O)O)C[C@@H]1OC[C@H](C[C@@H]2O[C@H]2[C@@H](C)[C@H](C)O)[C@@H](O)[C@H]1O [Mupirocin]
- Cholesterol-free media + simvastatin (0.04 μM) [1, 19]: 1.454
- Complete Media [1, 20]: 1.069
- Difference [1, 5]: −0.38
- Cholesterol-free [2, 16]: 0.7089
- Complete [2, 17]: 1.063
- Difference [2, 18]: 0.35

Compound: COC(=O)N[C@H](C(=O)N1CC2(CC2)C[C@H]1c1nc(-c2ccc3c(c2)C(F)(F)c2cc(-c4ccc5[nH]c([C@@H]6[C@H]7CC[C@H](C7)N6C(=O)[C@@H](NC(=O)OC)C(C)C)nc5c4)ccc2-3)c[nH]1)C(C)C [Ledipasvir]
- Cholesterol-free media + simvastatin (0.04 μM) [1, 19]: 1.189
- Complete Media [1, 20]: 0.6926
- Difference [1, 5]: −0.50
- Difference [2, 21]: −0.17
- Cholesterol-free [2, 22]: 0.5821
- Complete [2, 4]: 0.4142

Compound: C[C@]1(Cn2ccnn2)[C@H](C(=O)O)N2C(=O)C[C@H]2S1(=O)=O [Tazobactam]
- Cholesterol-free media + simvastatin (0.04 μM) [1, 3]: 1.141
- Complete Media [1, 4]: 1.299
- Difference [1, 10]: 0.16
- Difference [2, 21]: −0.10
- Cholesterol-free [2, 22]: 1.004
- Complete [2, 4]: 0.9006

Compound: Cc1nnc(C(=O)NC(C)(C)c2nc(C(=O)NCc3ccc(F)cc3)c(O)c(=O)n2C)o1 [Raltegravir]
- Cholesterol-free media + simvastatin (0.04 μM) [1]: 1.209
- Complete Media [1]: 1.119
- Difference [1]: −0.09
- Cholesterol-free [2]: 1.135
- Complete [2]: 0.9505
- Difference [2]: −0.18

Compound: CC(=O)Nc1nnc(S(N)(=O)=O)s1 [Acetazolamide]
- Cholesterol-free media + simvastatin (0.04 μM) [1, 13]: 0.9594
- Complete Media [1, 14]: 0.9398
- Difference [1, 15]: −0.02
- Cholesterol-free [2, 16]: 0.821
- Complete [2, 17]: 0.9414
- Difference [2, 18]: 0.12

Compound: Mafenide (Acetate)
- Cholesterol-free media + simvastatin (0.04 μM) [1, 23]: 0.8255
- Complete Media [1, 24]: 0.8982
- Difference [1, 10]: 0.07
- Difference [2, 21]: −0.16
- Cholesterol-free [2, 22]: 1.179
- Complete [2, 4]: 1.017

Compound: O=C1CC2(CCCC2)CC(=O)N1CCCCN1CCN(c2ncccn2)CC1 [Buspirone (hydrochloride)]
- Cholesterol-free media + simvastatin (0.04 μM) [1, 23]: 0.8828
- Complete Media [1, 24]: 0.9935
- Difference [1, 10]: 0.11
- Cholesterol-free [2, 7]: 1.286
- Complete ([2]; NCI-H292 cells, complete media): 0.8529
- Difference [2, 11]: −0.43

Compound: CC(=O)OC[C@H]1O[C@@H](n2ccc(=O)[nH]c2=O)[C@H](OC(C)=O)[C@@H]1OC(C)=O [Uridine triacetate]
- Cholesterol-free media + simvastatin (0.04 μM) [1, 8]: 1.076
- Complete Media [1, 9]: 0.8641
- Difference [1, 5]: −0.21
- Cholesterol-free [2, 16]: 1.055
- Complete [2, 17]: 1.37
- Difference [2, 18]: 0.32

Compound: Cc1cnc(C(=O)N[C@H]2CCCCC/C=C\[C@@H]3C[C@@]3(C(=O)NS(=O)(=O)C3CC3)NC(=O)[C@@H]3C[C@@H](Oc4nc5ccccc5c5ccccc45)CN3C2=O)cn1 [Paritaprevir]
- Cholesterol-free media + simvastatin (0.04 μM) [1, 13]: 1.147
- Complete Media [1, 14]: 1.102
- Difference [1, 15]: −0.05
- Difference [2, 6]: −0.03
- Cholesterol-free [2, 16]: 0.9471
- Complete [2, 17]: 0.9198

Compound: COc1ccc2c(c1)C(=O)N(CCc1ccc(S(=O)(=O)NC(=O)NC3CCCCC3)cc1)C(=O)C2(C)C [Gliquidone]
- Cholesterol-free media + simvastatin (0.04 μM) [1, 19]: 1.335
- Complete Media [1, 20]: 1.002
- Difference [1, 5]: −0.33
- Difference [2, 25]: −0.68
- Cholesterol-free [2, 26]: 1.724
- Complete [2, 27]: 1.039

Compound: Cc1nc(-c2ccc(OCC(C)C)c(C#N)c2)sc1C(=O)O [Febuxostat]
- Cholesterol-free media + simvastatin (0.04 μM) [1, 3]: 1.155
- Complete Media [1, 4]: 1.036
- Difference [1, 5]: −0.12
- Cholesterol-free [2, 16]: 0.955
- Complete [2, 17]: 1.415
- Difference [2, 18]: 0.46

Compound: COc1cccc(N(C)C(=S)Oc2ccc3c(c2)CCCC3)n1 [Liranaftate]
- Cholesterol-free media + simvastatin (0.04 μM) [1]: 0.9604
- Complete Media [1]: 0.9217
- Difference [1]: −0.04
- Cholesterol-free [2]: 1.279
- Complete [2]: 0.8388
- Difference [2]: −0.44

Compound: CC(C)(C)c1ccc(C(O)CCCN2CCC(C(O)(c3ccccc3)c3ccccc3)CC2)cc1 (stereo not shown) [Terfenadine]
- Cholesterol-free media + simvastatin (0.04 μM) [1, 23]: 0.9762
- Complete Media [1, 24]: 1.013
- Difference [1, 10]: 0.04
- Cholesterol-free [2, 7]: 1.145
- Complete ([2]; NCI-H292 cells, complete media): 0.8219
- Difference [2, 11]: −0.32

Compound: C[C@H](N[C@@H](CCc1ccccc1)C(=O)O)C(=O)N1CCC[C@H]1C(=O)O.O.O [Enalaprilat (dihydrate)]
- Cholesterol-free media + simvastatin (0.04 μM) [1, 19]: 1.635
- Complete Media [1, 20]: 1.051
- Difference [1, 5]: −0.58
- Difference [2, 25]: −0.58
- Cholesterol-free [2, 26]: 1.525
- Complete [2, 27]: 0.949

Compound: CC(O)Cn1cnc2c1c(=O)n(C)c(=O)n2C (stereo not shown) [Proxyphylline]
- Cholesterol-free media + simvastatin (0.04 μM) [1, 19]: 1.208
- Complete Media [1, 20]: 0.9431
- Difference [1, 5]: −0.26
- Cholesterol-free [2, 16]: 0.7713
- Complete [2, 17]: 1.327
- Difference [2, 18]: 0.56

Compound: C#C[C@]1(O)CC[C@H]2[C@@H]3CCC4=Cc5oncc5C[C@]4(C)[C@H]3CC[C@@]21C [Danazol]
- Cholesterol-free media + simvastatin (0.04 μM) [1, 3]: 1.056
- Complete Media [1, 4]: 0.9458
- Difference [1, 5]: −0.11
- Difference [2, 6]: −0.06
- Cholesterol-free [2, 16]: 0.8249
- Complete [2, 17]: 0.7604

Compound: CNS(=O)(=O)CCc1ccc2[nH]cc(C3CCN(C)CC3)c2c1 [Naratriptan (hydrochloride)]
- Cholesterol-free media + simvastatin (0.04 μM) [1, 8]: 1.179
- Complete Media [1, 9]: 0.9588
- Difference [1, 5]: −0.22
- Difference [2, 21]: −0.17
- Cholesterol-free [2, 22]: 1.077
- Complete [2, 4]: 0.9077

Compound: O=c1c(-c2ccc(O)cc2)coc2cc(O)ccc12 [Daidzein]
- Cholesterol-free media + simvastatin (0.04 μM) [1, 3]: 1.306
- Complete Media [1, 4]: 1.614
- Difference [1, 10]: 0.31
- Difference [2, 6]: −0.02
- Cholesterol-free [2, 16]: 1.1
- Complete [2, 17]: 1.082

Compound: COc1ccc(/C=C/C(=O)Nc2ccccc2C(=O)O)cc1OC [trans-Tranilast]
- Cholesterol-free media + simvastatin (0.04 μM) [1, 8]: 1.144
- Complete Media [1, 9]: 0.9085
- Difference ([1]; complete media vs cholesterol-free media + simvastatin (0.04 μM), […]): −0.24
- Difference [2, 12]: −0.10
- Complete [2, 4]: 0.8406

Compound: CC(O)c1cc(C(=O)N[C@@H](C)Cn2ccc(-c3ccc(C#N)c(Cl)c3)n2)[nH]n1 (stereo partly shown) [Darolutamide]
- Cholesterol-free media + simvastatin (0.04 μM) [1, 23]: 0.9075
- Complete Media [1, 24]: 0.9966
- Difference [1, 10]: 0.09
- Difference [2, 6]: −0.20
- Cholesterol-free [2, 7]: 1.263
- Complete ([2]; NCI-H292 cells, complete media): 1.061

Compound: CC(C)[N+](C)(CCOC(=O)C1c2ccccc2Oc2ccccc21)C(C)C.[Br-] [Propantheline (bromide)]
- Cholesterol-free media + simvastatin (0.04 μM) [1, 23]: 1.413
- Complete Media [1, 24]: 1.449
- Difference [1, 10]: 0.04
- Difference [2, 6]: −0.02
- Cholesterol-free [2, 16]: 1.311
- Complete [2, 17]: 1.294

Compound: OC[C@@H](O)CN1CCN(c2ccccc2)CC1 [Levodropropizine]
- Cholesterol-free media + simvastatin (0.04 μM) [1, 3]: 1.096
- Complete Media [1, 4]: 0.9475
- Difference [1, 5]: −0.15
- Difference [2, 21]: −0.15
- Cholesterol-free [2, 22]: 0.946
- Complete [2, 4]: 0.7999
